Paper PMC9123270 (The Journal of Biological Chemistry, 2022)

Legend:
Assay in all cases: Isothermal titration calorimetry
Assay type in all cases: binding
Conditions in all cases: SD, n = 3
AngaD7L2 = molecular target: T1, AngaD7L2 (Anopheles gambiae, UniProt A0A1S4GYJ6)
T1 sequence (A0A1S4GYJ6 19-315): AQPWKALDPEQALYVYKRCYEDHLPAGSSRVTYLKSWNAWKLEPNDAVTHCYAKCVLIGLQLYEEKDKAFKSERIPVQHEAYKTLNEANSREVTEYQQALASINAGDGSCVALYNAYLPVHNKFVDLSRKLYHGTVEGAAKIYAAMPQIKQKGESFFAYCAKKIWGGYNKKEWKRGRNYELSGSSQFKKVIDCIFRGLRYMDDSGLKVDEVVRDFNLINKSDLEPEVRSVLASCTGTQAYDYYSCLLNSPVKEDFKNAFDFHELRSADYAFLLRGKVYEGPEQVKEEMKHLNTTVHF

AngaD7L1 = molecular target: T2, AngaD7L1 (Anopheles gambiae, UniProt Q7PJ76)
T2 sequence (Q7PJ76 22-311): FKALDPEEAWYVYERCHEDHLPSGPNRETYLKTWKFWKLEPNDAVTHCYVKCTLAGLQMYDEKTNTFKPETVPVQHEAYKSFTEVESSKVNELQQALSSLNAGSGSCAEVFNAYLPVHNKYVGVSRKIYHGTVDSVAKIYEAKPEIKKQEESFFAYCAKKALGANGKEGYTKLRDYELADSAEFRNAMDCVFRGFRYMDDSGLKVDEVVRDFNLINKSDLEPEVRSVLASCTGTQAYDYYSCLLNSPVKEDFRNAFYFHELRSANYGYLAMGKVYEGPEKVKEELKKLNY

AngaD7L3 = AngaD7L3 (Anopheles gambiae, UniProt A0A1S4HE90)
AngaD7L3, sequence (A0A1S4HE90 27-354): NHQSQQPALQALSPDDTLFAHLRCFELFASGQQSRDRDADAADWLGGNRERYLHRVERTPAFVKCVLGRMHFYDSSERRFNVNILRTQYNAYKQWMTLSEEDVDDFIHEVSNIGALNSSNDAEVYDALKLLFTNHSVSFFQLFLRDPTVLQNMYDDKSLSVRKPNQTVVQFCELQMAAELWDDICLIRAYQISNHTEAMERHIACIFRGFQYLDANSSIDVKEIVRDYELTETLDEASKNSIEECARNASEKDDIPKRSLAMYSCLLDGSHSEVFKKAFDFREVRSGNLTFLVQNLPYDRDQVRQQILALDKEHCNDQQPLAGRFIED

Row | Structure (SMILES) | Kd (AngaD7L2) | Kd (AngaD7L1) | also measured
1 | CCCCC/C=C\C[C@@H](O)/C=C/C=C/C=C\[C@@H](O)CCCC(=O)O [LTB4, leukotriene B4] | 800 nM | – | –
2 | CCCCC/C=C\C\C=C/C=C/C=C/[C@@H](SC[C@H](NC(=O)CC[C@H](N)C(=O)O)C(=O)NCC(=O)O)[C@@H](O)CCCC(=O)O [LTC4, leukotriene C4] | – | 2000 nM | –
3 | CCCCC/C=C\C\C=C/C=C/C=C/[C@@H](SC[C@H](N)C(=O)NCC(=O)O)[C@@H](O)CCCC(=O)O [LTD4, leukotriene D4] | 1000 nM | – | –
4 | NCCc1c[nH]c2ccc(O)cc12 [Serotonin, 5-hydroxytryptamine (5-HT)] | – | – | Kd (AngaD7L3): 20 nM
5 | CCCCC[C@H](O)/C=C/[C@@H]1[C@@H](C/C=C\CCCC(=O)O)[C@H]2CO[C@@H]1C2 [U-46619, 9,11-dideoxy-9alpha,11alpha-methanoepoxyprostaglandin F2alpha (thromboxane A2 analog)] | – | 400 nM | –
